Our source for the TGI and GI50 values is PubChem BioAssay (NCI).

Test systems include HCC-2998 colon; OVCAR-3 ovarian; SN12C renal; MDA-MB-435; SK-OV-3 ovarian; SNB-19 CNS; CCRF-CEM leukemia; U251 CNS; RXF 393 renal; TK-10 renal.
What all share (experiment): NCI anticancer screen, dose series, 48 h

“And” between values parts separate entries of the source, which are not always exact repeats. Equal values may be shown once.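 Exposure lasted 48 hours, with cells grown in 96-well plates and compounds tested at five concentrations. GI50 = concentration required for 50% inhibition of growth. Definition used: TGI = concentration required for complete inhibition of growth.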 Where a SMILES comes first, the peptide text is derived from it. Bridges are numbered along the chain shown (N, C = ends). A value given as a limit tells only on which side of the number the result lay.

Consider `CCN(CC)CC[n+]1ccc2c(C)c3[nH]c4ccccc4c3c(C)c2c1`, for which the TGI was 1.52 µM and 1.43 µM and 1.97 µM with HCC-2998 colon; 2.02 µM and 4.55 µM and 2.07 µM in the experiment on OVCAR-3 ovarian; 1.9 µM and 0.925 µM and 2.68 µM in the experiment on SN12C renal; 2.14 µM with MDA-MB-435; 6.13 µM and 11.7 µM and 11.4 µM in the experiment on SK-OV-3 ovarian; 1.41 µM and 1.48 µM and 1.33 µM in the experiment on SNB-19 CNS. The TGI with CCRF-CEM leukemia was 4.33 µM and 2.1 µM and 2.27 µM; in the experiment with U251 CNS it was 1.3 µM and 5.1 µM and 1.63 µM; in the experiment with RXF 393 renal, 8.83 µM and 8.41 µM and 7.26 µM; with TK-10 renal it was 25.3 µM. Further, the GI50 with OVCAR-3 ovarian is 0.934 µM; in the experiment on SN12C renal, 0.195 µM; in the experiment on SK-OV-3 ovarian it was 1.35 µM and 2.62 µM and 3.92 µM; with SNB-19 CNS, 0.251 µM; in the experiment on CCRF-CEM leukemia, 0.245 µM and 0.0957 µM; with U251 CNS, 0.25 µM. For the same compound, the GI50 with RXF 393 renal is 1.83 µM.
Regarding `COc1ccc(C2C3=C(COC3=O)Oc3cc4c(cc32)OCO4)cc1OC` (stereo unspecified), the TGI was 4.85 µM with HCC-2998 colon; 6.05 µM in the experiment with OVCAR-3 ovarian; above 100 µM in the experiment on SN12C renal; 0.751 µM with MDA-MB-435; 18.1 µM in the experiment on SK-OV-3 ovarian; above 100 µM in the experiment with SNB-19 CNS. Also, the TGI is above 32.4 µM with CCRF-CEM leukemia, above 100 µM with U251 CNS, 5.7 µM with RXF 393 renal and above 100 µM with TK-10 renal.
Regarding `C/C(CC(O)(C(F)(F)F)C(F)(F)F)=N\O`, the TGI with HCC-2998 colon, in the experiment with OVCAR-3 ovarian, in the experiment on SN12C renal, with MDA-MB-435, in the experiment on SK-OV-3 ovarian and with SNB-19 CNS was above 10 µM in each case. For the same compound, the TGI with CCRF-CEM leukemia, with U251 CNS, with RXF 393 renal and in the experiment on TK-10 renal was above 10 µM in each case.
Turning to `Cc1cccc(NC(=S)Nc2cccc(Cl)c2)n1`, the TGI in the experiment with HCC-2998 colon is above 100 µM; with OVCAR-3 ovarian, above 100 µM; with SN12C renal it was above 100 µM; with MDA-MB-435 it was above 100 µM; in the experiment with SK-OV-3 ovarian, 98.6 µM; in the experiment with SNB-19 CNS, above 100 µM. Moreover, the TGI in the experiment on CCRF-CEM leukemia, in the experiment with U251 CNS, in the experiment with RXF 393 renal and in the experiment with TK-10 renal was above 100 µM each time.
Take `Cc1noc(-c2ccc(C(=O)O)[nH]2)c1Br`: the TGI in the experiment with HCC-2998 colon, in the experiment on OVCAR-3 ovarian, in the experiment on MDA-MB-435, in the experiment with SK-OV-3 ovarian, in the experiment with SNB-19 CNS and with CCRF-CEM leukemia was above 100 µM throughout. Moreover, the TGI in the experiment on U251 CNS, in the experiment on RXF 393 renal and with TK-10 renal was above 100 µM throughout.
`C[C@H](CCc1nc(C#N)c(N)o1)[C@H]1CC[C@H]2[C@@H]3CCC4C[C@@H](O)CC[C@]4(C)[C@H]3C[C@@H](O)[C@]12C` (stereo partly specified): the TGI was found to be 31.2 µM in the experiment on HCC-2998 colon; 27.3 µM with OVCAR-3 ovarian; 24.6 µM in the experiment on SN12C renal; 30 µM in the experiment on MDA-MB-435; 28.5 µM in the experiment with SK-OV-3 ovarian; 31 µM in the experiment with SNB-19 CNS. Further, the TGI stood at 0.445 µM in the experiment with CCRF-CEM leukemia, 26.5 µM in the experiment on U251 CNS, 24.7 µM in the experiment with RXF 393 renal and 28.6 µM in the experiment with TK-10 renal.
With `COC1(C)CCC(OS(C)(=O)=O)CO1` (stereo unspecified), the TGI in the experiment with HCC-2998 colon, in the experiment on OVCAR-3 ovarian, in the experiment on SN12C renal, in the experiment on MDA-MB-435, with SK-OV-3 ovarian and in the experiment with SNB-19 CNS was above 100 µM each time. The TGI with CCRF-CEM leukemia, with U251 CNS, in the experiment with RXF 393 renal and in the experiment on TK-10 renal was above 100 µM each time.
Take `COC(=O)C1CCC(=O)NCCCCC(NC(=O)C(N)CC(=O)O)C(=O)N1` (stereo not drawn) (H-Asp-Lys-Glu-OMe; lactam 2-3; configuration not given here): the TGI with HCC-2998 colon, with OVCAR-3 ovarian, with SN12C renal, with MDA-MB-435, in the experiment with SK-OV-3 ovarian and in the experiment with SNB-19 CNS was above 100 µM each time. Further, the TGI with CCRF-CEM leukemia, in the experiment with U251 CNS, with RXF 393 renal and with TK-10 renal was above 100 µM throughout.
Take `CC1(C)Cc2ccccc2C(C)(Cl)C(=O)N1` (stereo unspecified): the TGI with HCC-2998 colon, in the experiment with OVCAR-3 ovarian, in the experiment with SN12C renal, with MDA-MB-435, in the experiment on SNB-19 CNS and in the experiment with CCRF-CEM leukemia was above 10 µM throughout. The TGI in the experiment on U251 CNS, in the experiment with RXF 393 renal and in the experiment on TK-10 renal was above 10 µM throughout.
As to `CC12CC(c3ccccc3O1)C(C(=O)Nc1nccs1)C(=O)N2` (stereo unspecified), the TGI in the experiment with HCC-2998 colon, with OVCAR-3 ovarian, in the experiment with MDA-MB-435, with SK-OV-3 ovarian, with SNB-19 CNS and with CCRF-CEM leukemia was above 100 µM in each case. Also, the TGI in the experiment with U251 CNS, in the experiment on RXF 393 renal and with TK-10 renal was above 100 µM in each case.
On to `CSCCC(NC(=O)C(Cc1c[nH]c2ccccc12)NC(=O)CCNC(=O)OC(C)(C)C)C(=O)NC(CC(=O)O)C(=O)NC(Cc1ccccc1)C(N)=O` (stereo unspecified), for which the TGI with HCC-2998 colon, in the experiment on OVCAR-3 ovarian, in the experiment with SN12C renal, with MDA-MB-435, in the experiment on SK-OV-3 ovarian and in the experiment with CCRF-CEM leukemia was above 50 µM in each case. Moreover, the TGI with U251 CNS, in the experiment with RXF 393 renal and in the experiment on TK-10 renal was above 50 µM in each case.
On to `Cc1c2oc(=O)c(C#N)cc2c2ccccn12`, for which the TGI in the experiment with HCC-2998 colon is above 100 µM; with OVCAR-3 ovarian it was 69.5 µM; in the experiment with MDA-MB-435 it was above 100 µM; in the experiment with SK-OV-3 ovarian, above 100 µM; in the experiment on SNB-19 CNS, above 100 µM; in the experiment on CCRF-CEM leukemia it was above 100 µM. Also, the TGI in the experiment with U251 CNS, in the experiment with RXF 393 renal and with TK-10 renal was above 100 µM each time.
Regarding `Nc1ccnc2c1ncn2[C@H]1C[C@H](O)[C@@H](CO)O1`, the TGI with HCC-2998 colon, with OVCAR-3 ovarian, with SN12C renal, in the experiment with MDA-MB-435, in the experiment with SNB-19 CNS and with CCRF-CEM leukemia was above 100 µM in each case. For the same compound, the TGI with U251 CNS, in the experiment with RXF 393 renal and in the experiment on TK-10 renal was above 100 µM in each case.
